Test results taken from patent publication US5496855A, “Anti-inflammatory compounds” (SmithKline Beecham Corp., priority 1995, dated 1996).
pIC50: −log10 of the molar value. Like-named read-outs stand apart in the source and are kept apart here.

Assays:
[1] = biological target: T1, rh Type II-14 kDa PLA2 (Homo sapiens, UniProt P14555); experiment: Assay (a): Phospholipase A2 assay, acylhydrolysis of [3H]-AA-E. coli; format: biochemical; conditions: generally tested at 50 μm levels
T1 sequence (P14555 21-144): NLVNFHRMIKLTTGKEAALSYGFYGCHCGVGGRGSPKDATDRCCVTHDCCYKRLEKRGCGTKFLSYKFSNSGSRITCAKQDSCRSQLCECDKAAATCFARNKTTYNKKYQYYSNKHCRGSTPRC
Protocol: Phospholipase A2 activity of rh Type II-14 kDa PLA2 or PLA2 semi-purified from human synovial joint fluid was measured by the acylhydrolysis of high specific activity (NEN)[^3 H]-AA-E. coli (0.5 mCi/5nmol PL Pi) as previously described in Marshall et at., J. Rheumatology, 18:1, pp59-65 (1991). […] [Predominately used herein was rh Type II 14 kDa PLA2, or alternatively bovine pancreatic PLA2 was also be used]. The reaction mixture ([…] total volume) contained 25 mM HEPES, pH 7.4, 150 mM NaCl, 5 mM CaCl2 and [^3 H]-AA-E. coli (low specific activity; 5-8 nmol PL Pi per assay). Assays were incelbated for a time predetermined to be on the linear portion of a time versus hydrolysis plot. Experiments were conducted with final % hydrolysis values ranging from 2% (400-1000 dpm) to 10% (2000-5000 dpm) acylhydrolysis after blank correction. Reactions were terminated by the addition of 1.0 mL tetrahydrofuran (THF). […] Radiolabel in this eluate was quantitated by liquid scintillation counting. Results were expressed as % of fatty acid hydrolyzed ([sample dpms-non-specific (blank) dpms/total dpms]×100) or specific activity which was calculated from hydrolysis values found in the linear portion of time versus % hydrolysis plots (pmol free fatty acid hydrolyzed mg/min). […]

[2] = tested on: CoA-IT; experiment: Assay (b): CoA-IT activity in U937 cell microsomes; format: biochemical, human
Description: The following is a method to measure CoA-IT activity and the effects of compounds on CoA-IT activity. The assay is based upon mixing cellular material containing CoA-IT activity with a stable lyso phospholipid such as 1-alkyl-2-acyl-GPC and measuring the production of phospholipid product such as 1-alkyl-2-acyl-GPC occurring in the absence of added CoA or CoA-fatty acids.
Any inflammatory cell that contains high levels of CoA-IT activity can be used, such as neutrophils, macrophages or cell lines such as U937 cells. U937 cells were obtained from American Type Culture Collection and grown in RPMI-1640 media (Gibco, Grand Island, N.Y.) supplemented with 10% fetal bovine serum (Hyclone, Logan, Utah) at 37° C., 5% CO2. Cells were grown without differentiation (basal state) by any agent, such as dimethyl sulfoxide. As used herein, "inflammatory cells" include, but are not limited to neutrophils, macrophages, monocytes, lymphocytes, eosinophils, basophils, and mast cells.
Microsomes are prepared using standard techniques. […]
CoA-IT activity is measured in 1.5 ml centrifuge tubes in a total volume of 100 ul. […] An aliquot of the chloroform-extracted materials are separated, usually by TLC in chloroform/methanol/acetic acid/water (50:25:8:4, v/v), visualized by radioscanning (Bioscan) and the product, [3H ]1-alkyl-2-acyl-GPC, is scraped and quantified by liquid scintillation spectroscopy. […]

[3] = tested on: human neutrophils; experiment: Assay (c): Arachidonic acid release assay, A23187-stimulated neutrophils; format: cell-based; conditions: at levels greater than 10 uM
Protocol: Human neutrophils are obtained in the laboratory using three different methods. One method uses leukophoresis packs from normal humans and neutrophils are isolated using the histopaque-1077 technique. The blood is centrifuged at 300×g for 10 minutes. The cell pellets are resuspended in PBS composed of 137 mM NaCl, 8.8 mM Na2HPO4, 1.5 mM KH2PO4, 2.7 mM KCI (Dulbecco's Gibco Laboratories, Long Island, N.Y.) and layered over histopaque-1077 (Sigma, St. Louis, Mo.). The pellets are collected after centrifugation (300×g for 30 minutes) and washed once in PBS. The cell pellets are exposed briefly to deionized water to lyse any erythrocytes. The remaining cells are collected by centrifugation, suspended in PBS, counted and identified after cytospinning and staining. The final leukocyte preparation will be of greater than 95% purity and viability.
The second method isolates human neutrophils from fresh heparinized normal blood using the Histopaque-1077 technique. […] The remaining cells are collected by centrifugation, suspended in PBS, counted and identified after cytospinning and staining. […]
The third method isolates human neutrophils from freshly drawn heparinized normal blood using the Percoil technique. […] The neutrophils are suspended in PBS, counted and identified after cytospinning and staining. […]

[4] = tested on: human neutrophils; experiment: Assay (d): Production of platelet-activating factor (PAF), A23187-stimulated neutrophils; format: cell-based
Protocol: Blood is obtained from normal humans and neutrophils are isolated as described for the arachidonic acid release assay, above. The final leukocyte preparation should be of greater than 95% purity and viability.
Neutrophils are suspended in PBS at concentrations of 5 to 20×10^6 cells per ml. Cells are added to test tubes and treated with the desired compounds for 5 to 10 minutes, then challenged with calcium ionophore A23187, 2 μM and 20-30 μCi of [3H]acetic acid (NEN-Dupont, Boston, Mass.), or the vehicle of PBS with 0.25-1 mg/ml. After 5 to 20 minutes, the reactions are terminated by addition of an equal volume of chloroform:methanol (1:2, v/v) to the samples and the lipiris are extracted by addition of equal volumes of chloroform and distilled water. The samples are vortexed and centrffuged at high speed and the chloroform layer removed to a clean tube.
The chloroform from each tube is evaporated to dryness and the material suspended in a small volume of chloroform or chloroform:methanol (25-100 μl) and the total material spotted on a Silica TLC plate. The plates are developed in chloroform/methanol/acetic acid/water (50:25:8:4, v/v) visualized by radioscanning (Bioscan) and the product, [^3 H]PAF, is scraped and quantified by liquid scintillation spectroscopy. With this TLC system, the Rf value for a synthetic standard of PAF is approximately 0.33.

[5] = tested on: human monocytes; experiment: Assay (f): stimulated eicosanoid (PGE2, LTC4) release by human monocytes; format: cell-based; conditions: human monocyte cells, A23187
Protocol: Leukocyte-rich leukopaks obtained from Biological Specialties (Lansdale, Pa.) are collected from male volunteers who are not taking anti-inflammatory drugs. Leukopaks are centrifuged (90×g for 15 min) twice to remove the platelet-rich plasma. The cell pellet is washed by centrifugation and are resuspended in HBSS without Ca^2+ or Mg^2+. Histopaque 1077 is layered under the cell suspension and centrifuged at 400×g for 30 min to obtain the buffy coat. The interfacial buffy coat, containing monocytes and lymphocytes, is removed and saved. The buffy coat is washed twice with HBSS without Ca^2+ or Mg^2+ by centrifugation. The cell pellet (4-6×10^8 cells/30 mls) is resuspended in iso-osmotic media (RPMI-1640, 10% heat inactivated fetal bovine serum (FBS), 0.2 mM L-glutamine, 2.5 mM HEPES) and layered over an equal volume of 46% Percol mixture (10×PBS/Percol; 9.25/0.75) and 54% iso-osmotic media and centrifuged for 30 min at 1000×g (Marshall and Roshak, Biochem. Cell Biol. 71: 331-339, 1993). The monocyte population located at the interface of the Percoll gradient is removed and washed twice in HBSS without Ca^2+ or Mg^2+.
Monocytes (5×10^6 /ml are incubated as a suspension in serum-free RPMI-1640 medium containing the vehicle DMSO (<1%) or drug for 30 min at 27° C. after which vehicle or stimuli is added for the indicated time. The stimulating agent is solubilized in DMSO and appropriate vehicle controls are included in all experiments. The amount of stimuli is chosen from the linear portion of a concentration versus product curve usually representing 60-80% maximal stimulation over the indicated incubation time at 37° C. (A23187, 1 μM, (15 min). The reaction is terminated by reduction of pH through addition of citric acid and centrifugation (10 min, 400×g, 4° C.). Cell viability is monitored before and after experiments using trypan blue exclusion. The cell-free media is decanted and stored at -70° C. until analyzed. Prostaglandin E2 and LTC4 are directly measured in cell-free media using enzyme immunoassay (EIA) kits purchased from Caymen Chemical Co. (Ann Arbor, Mich.) Sample or standard dilutions are made with appropriate media and analyzed in triplicate. Results are obtained by extrapolation from a standard curve prepared in the media and expressed as pg or ng/ml of sample.

[6] = tested on: TPA-induced Mouse Ear Inflammation; experiment: Assay (g): TPA-induced mouse ear inflammation (ear edema, MPO); format: in vivo; conditions: for TPA % change in edema / change in MPO, TPA model: topical, standard inhibitors at doses of 0.2, 0.1 and 0.3 respectively
Protocol: (§1) Male Balb/c inbred mice are obtained from Charle River Breeding Laboratories (Kingston, N.Y.). Within a single experiment mice (22-25 g) are age-matched. These in vivo experiments typically involve the use of 5-6 animals/group.
TPA (12-0-tetradecanoylphorbol 13-acetate) (Sigma Chemical Company) in acetone ([…]) is applied to the inner and outer surfaces of the left ear of BALB/c male mice. The thickness of both ears is then measured with a dial micrometer (Mitutoyo, Japan) at both 2 and 4 hours after treatment, and the data expressed as the change in thickness (10^-3 cm) between treated and untreated ears. […] After measuring the edema, the inflammed left ears are removed and stored at -70° C. until they were assayed for MPO (myeloperoxidase) activity where appropriate.
(§2) On the day of the assay, partially thawed ear tissues are minced and then homogenized (10% w/v) with a Tissumizer homogenizer (Tekmar Co.) in 50 mM phosphate buffer (pH 6) containing 0.5% HTAB. The tissue homogenates are taken through three cycles of freeze-thaw, followed by brief sonication (10 sec). The method of Bradley et at. is used with modifications as described. […] Supernatant MPO activity is quantified kinetically (change in absorbance measured over 3 min, sampled at 15-sec intervals) using a Beckman DU-7 spectrophotometer and a Kinetics Analysis package (Beckman Instruments, Inc.). One unit of MPO activity is defined as that degrading one micromole of peroxide per minute at 25° C.
Statistical analysis is done using Student's "t" test.

[7] = tested on: Arachidonic acid induced ear inflammation; experiment: Assay (h): Arachidonic acid induced ear inflammation (ear edema, MPO); format: in vivo, mouse; conditions: for AA % change in edema / change in MPO, AA model: topical, standard inhibitors at doses of 0.2, 0.1 and 0.3 respectively
Protocol: as §1, §2
Arachidonic acid is dissolved in acetone (1 mg/ear) to the left ear of BALB/c male mice. The thickness of both cars is measured with a constant pressure thickness guage 1 hour after treatment and the data expressed as the change in thickness between treated and untreated ears. Test compounds or vehicle are given at the time of AA application. The inflammatory cell infiltration is measured by MPO activity as described above in the TPA ear edema assay. After the edema measurements are made, the inflamed ears are removed and assayed for MPO activity.

[8] = read-out: IC50 for LTC4 release

SMILES | PLA2 inhibition [1] | inhibitory activity in arachidonic acid release assay [3] | pIC50 [5, 8] | pIC50 ([5]; read-out: IC50 of PGE2 release) | TPA % change in edema [6] | change in MPO, TPA model [6] | AA % change in edema [7] | change in MPO, AA model [7] | other results
NC(=O)N(O)CCC(CSc1ccc(Cc2ccccc2)cc1)NC(=O)CCCCCCc1ccccc1 (racemic) [Example 1, N-[3-(7-phenylheptylamido)-4-(4-phenylmethyl)phenylthio]-butyl-N-hydroxy urea] | positive PLA2 inhibition | weak inhibitory activity | 6.66 | > 7.00 |  |  |  |  | CoA-IT inhibitory activity ([2]; generally tested at 50 μm levels): positive CoA-IT inhibitory activity; pIC50 ([4]; Neutrophil, human neutrophils, A23187): ~5.00; MPO activity, percent change, TPA ear model ([6]; topically, 1 mg/ear): -68%; ear swelling (edema), percent change, TPA ear model ([6]; topically, 1 mg/ear): -43%; inhibition of inflammatory cell infiltration, TPA ear model ([6]; typically dosed at 50 mg/ear): demonstrated activity as an inhibitor of the inflammatory cell infiltration; MPO, AA ear model ([7]; 1 mg/ear): -53%; reduction in ear swelling, AA ear model ([7]; 1 mg/ear): -36%
N#CCC(CSc1ccc(Cc2ccccc2)cc1)NC(=O)CCCCCCc1ccccc1 (stereo not drawn) [Example 2, [3-(7-Phenylheptylamido)-4-(4-phenylmethyl)phenylthio]butylnitrile] | positive PLA2 inhibition | weak inhibitory activity | 6.28 | ~7.00 |  |  |  |  | CoA-IT inhibitory activity ([2]; at levels of greater than 30 uM): did not demonstrate positive activity; inhibitory activity in PAF production assay ([4]; at greater than 30 uM): did not demonstrate positivr activity
C[C@H](C(=O)O)c1ccc2cc(OCc3ccc4ccccc4n3)ccc2c1 [WY 50,295] |  |  |  |  | -18% | -36 | -50% | -90 | 
C[C@@H]1C[C@H]2[C@@H]3CCC4=CC(=O)C=C[C@]4(C)[C@@]3(F)[C@@H](O)C[C@]2(C)[C@@]1(O)C(=O)CO [dexamethasone] |  |  |  |  | -50% | -54 | -10% | 0 | 
CC(=O)O[C@H]1C[C@@H]2[C@@]3(C)CCCC(C)(C)[C@@H]3CC[C@@]2(C)[C@@H]2CC=C(C=O)[C@H](C=O)[C@@]12C [scalaradial] |  |  |  |  |  | -65 |  | -33 | 
